Results: the OligoGym collection
Oligonucleotides are written 5' to 3', each unit as a sugar letter and its base; * is a phosphorothioate linkage, no mark a phosphodiester; rarer units and linkages stand in square brackets, end groups in braces. Plain capitals give the bases only. d = 2'-deoxy (DNA); r = 2'-OH (RNA)
Also: test concentration or dose not given here.

What follows are substances tested against UBE2I (assay: reporter assay of Huesken 2005). Conditions: siRNA.
Work on “sense rArArUrGrUrGrUrArCrCrCrUrUrCrGrGrGrGrAdTdT / antisense rUrCrCrCrCrGrArArGrGrGrUrArCrArCrArUrUdCdG” yielded a normalised inhibition (eCFP-eYFP dual reporter) of 59.6%.
Work on “sense rArCrCrUrCrArUrGrArArCrUrGrGrGrArGrUrGdTdT / antisense rCrArCrUrCrCrCrArGrUrUrCrArUrGrArGrGrUdTdC” yielded a normalised inhibition (eCFP-eYFP dual reporter) of 58.8%.
With “sense rCrGrArArUrGrUrGrUrArCrCrCrUrUrCrGrGrGdTdT / antisense rCrCrCrGrArArGrGrGrUrArCrArCrArUrUrCrGdGdG” the normalised inhibition (eCFP-eYFP dual reporter) was 45.1%.
Work on “sense rArGrArArArGrGrGrArCrUrCrCrGrUrGrGrGrAdTdT / antisense rUrCrCrCrArCrGrGrArGrUrCrCrCrUrUrUrCrUdTdT” yielded a normalised inhibition (eCFP-eYFP dual reporter) of 63.1%.
“sense rGrArGrGrArGrGrArCrArArGrGrArCrUrGrGrAdTdT / antisense rUrCrCrArGrUrCrCrUrUrGrUrCrCrUrCrCrUrCdTdA” was tested, and the normalised inhibition (eCFP-eYFP dual reporter) was 70.5%.
For “sense rGrCrCrUrArCrArCrGrArUrUrUrArCrUrGrCrCdTdT / antisense rGrGrCrArGrUrArArArUrCrGrUrGrUrArGrGrCdCdT”, the normalised inhibition (eCFP-eYFP dual reporter) was 67.8%.
For “sense rGrArGrGrCrUrUrGrUrUrUrArArArCrUrArCrGdTdT / antisense rCrGrUrArGrUrUrUrArArArCrArArGrCrCrUrCdCdT”, the normalised inhibition (eCFP-eYFP dual reporter) was 73.2%.
Substance “sense rGrArGrUrGrCrGrCrCrArUrUrCrCrArGrGrArAdTdT / antisense rUrUrCrCrUrGrGrArArUrGrGrCrGrCrArCrUrCdCdC” has a normalised inhibition (eCFP-eYFP dual reporter) of 72.6%.
For “sense rArCrCrArArArArUrGrUrArArArUrUrCrGrArAdTdT / antisense rUrUrCrGrArArUrUrUrArCrArUrUrUrUrGrGrUdGdG”, the normalised inhibition (eCFP-eYFP dual reporter) was 86.4%.
In the case of “sense rArUrUrCrGrArArCrCrArCrCrArUrUrArUrUrUdTdT / antisense rArArArUrArArUrGrGrUrGrGrUrUrCrGrArArUdTdT”, the normalised inhibition (eCFP-eYFP dual reporter) was 81%.
In the case of “sense rUrArUrUrUrCrArCrCrCrGrArArUrGrUrGrUrAdTdT / antisense rUrArCrArCrArUrUrCrGrGrGrUrGrArArArUrAdAdT”, the normalised inhibition (eCFP-eYFP dual reporter) was 78.9%.
“sense rUrUrCrGrArArCrCrArCrCrArUrUrArUrUrUrCdTdT / antisense rGrArArArUrArArUrGrGrUrGrGrUrUrCrGrArAdTdT” showed a normalised inhibition (eCFP-eYFP dual reporter) of 59.1%.
“sense rArCrArGrUrGrUrGrCrCrUrGrUrCrCrArUrCrUdTdT / antisense rArGrArUrGrGrArCrArGrGrCrArCrArCrUrGrUdCdC” gave a normalised inhibition (eCFP-eYFP dual reporter) of 59.2%.
Work on “sense rArGrGrGrArCrUrCrCrGrUrGrGrGrArArGrGrAdTdT / antisense rUrCrCrUrUrCrCrCrArCrGrGrArGrUrCrCrCrUdTdT” yielded a normalised inhibition (eCFP-eYFP dual reporter) of 72.1%.
In the case of “sense rCrArCrCrCrArUrUrUrGrGrUrUrUrCrGrUrGrGdTdT / antisense rCrCrArCrGrArArArCrCrArArArUrGrGrGrUrGdGdT”, the normalised inhibition (eCFP-eYFP dual reporter) was 85.4%.
In the case of “sense rCrCrGrArUrGrGrCrArCrGrArUrGrArArCrCrUdTdT / antisense rArGrGrUrUrCrArUrCrGrUrGrCrCrArUrCrGrGdGdA”, the normalised inhibition (eCFP-eYFP dual reporter) was 81.8%.
“sense rUrCrCrGrUrGrGrGrArArGrGrArGrGrCrUrUrGdTdT / antisense rCrArArGrCrCrUrCrCrUrUrCrCrCrArCrGrGrAdGdT” showed a normalised inhibition (eCFP-eYFP dual reporter) of 52.4%.
“sense rGrArArArGrArArArGrGrGrArCrUrCrCrGrUrGdTdT / antisense rCrArCrGrGrArGrUrCrCrCrUrUrUrCrUrUrUrCdCdT” was tested, and the normalised inhibition (eCFP-eYFP dual reporter) was 53.1%.
Work on “sense rCrArCrArArUrCrArArArCrArGrArUrCrCrUrAdTdT / antisense rUrArGrGrArUrCrUrGrUrUrUrGrArUrUrGrUrGdAdT” yielded a normalised inhibition (eCFP-eYFP dual reporter) of 87.4%.
Work on “sense rCrUrUrCrUrArArArUrGrArArCrCrArArArUrAdTdT / antisense rUrArUrUrUrGrGrUrUrCrArUrUrUrArGrArArGdTdT” yielded a normalised inhibition (eCFP-eYFP dual reporter) of 88.8%.
“sense rGrGrArGrGrCrUrUrGrUrUrUrArArArCrUrArCdTdT / antisense rGrUrArGrUrUrUrArArArCrArArGrCrCrUrCrCdTdT” showed a normalised inhibition (eCFP-eYFP dual reporter) of 82.5%.
“sense rGrCrArCrGrArUrGrArArCrCrUrCrArUrGrArAdTdT / antisense rUrUrCrArUrGrArGrGrUrUrCrArUrCrGrUrGrCdCdA” was tested, and the normalised inhibition (eCFP-eYFP dual reporter) was 84.4%.
In the case of “sense rUrArCrArCrGrArUrUrUrArCrUrGrCrCrArArAdTdT / antisense rUrUrUrGrGrCrArGrUrArArArUrCrGrUrGrUrAdGdG”, the normalised inhibition (eCFP-eYFP dual reporter) was 92.9%.
“sense rArGrArUrGrArUrUrArUrCrCrArUrCrUrUrCrGdTdT / antisense rCrGrArArGrArUrGrGrArUrArArUrCrArUrCrUdTdT” was tested, and the normalised inhibition (eCFP-eYFP dual reporter) was 52.7%.
“sense rArArArUrGrUrArArArUrUrCrGrArArCrCrArCdTdT / antisense rGrUrGrGrUrUrCrGrArArUrUrUrArCrArUrUrUdTdG” showed a normalised inhibition (eCFP-eYFP dual reporter) of 53.9%.
“sense rCrCrCrGrArUrGrGrCrArCrGrArUrGrArArCrCdTdT / antisense rGrGrUrUrCrArUrCrGrUrGrCrCrArUrCrGrGrGdAdT” gave a normalised inhibition (eCFP-eYFP dual reporter) of 55%.
“sense rArGrCrCrArUrCrArCrArArUrCrArArArCrArGdTdT / antisense rCrUrGrUrUrUrGrArUrUrGrUrGrArUrGrGrCrUdGdG” showed a normalised inhibition (eCFP-eYFP dual reporter) of 60.1%.
In the case of “sense rArUrUrCrCrArGrGrArArArGrArArArGrGrGrAdTdT / antisense rUrCrCrCrUrUrUrCrUrUrUrCrCrUrGrGrArArUdGdG”, the normalised inhibition (eCFP-eYFP dual reporter) was 83.9%.
With “sense rCrArGrArGrGrCrCrUrArCrArCrGrArUrUrUrAdTdT / antisense rUrArArArUrCrGrUrGrUrArGrGrCrCrUrCrUrGdCdT” the normalised inhibition (eCFP-eYFP dual reporter) was 83.8%.
With “sense rCrGrGrArUrGrCrUrUrUrUrCrArArArGrArUrGdTdT / antisense rCrArUrCrUrUrUrGrArArArArGrCrArUrCrCrGdTdA” the normalised inhibition (eCFP-eYFP dual reporter) was 87.3%.
“sense rArUrArCrArGrGrArArCrUrUrCrUrArArArUrGdTdT / antisense rCrArUrUrUrArGrArArGrUrUrCrCrUrGrUrArUdTdC” gave a normalised inhibition (eCFP-eYFP dual reporter) of 52.1%.
In the case of “sense rArUrUrUrGrGrUrUrUrCrGrUrGrGrCrUrGrUrCdTdT / antisense rGrArCrArGrCrCrArCrGrArArArCrCrArArArUdGdG”, the normalised inhibition (eCFP-eYFP dual reporter) was 51.6%.
With “sense rUrCrCrCrGrArUrGrGrCrArCrGrArUrGrArArCdTdT / antisense rGrUrUrCrArUrCrGrUrGrCrCrArUrCrGrGrGrAdTdT” the normalised inhibition (eCFP-eYFP dual reporter) was 48.8%.
“sense rArCrCrArArArUrArUrCrCrArArGrArCrCrCrAdTdT / antisense rUrGrGrGrUrCrUrUrGrGrArUrArUrUrUrGrGrUdTdC” showed a normalised inhibition (eCFP-eYFP dual reporter) of 83.9%.
“sense rGrArArArGrGrGrArCrUrCrCrGrUrGrGrGrArAdTdT / antisense rUrUrCrCrCrArCrGrGrArGrUrCrCrCrUrUrUrCdTdT” showed a normalised inhibition (eCFP-eYFP dual reporter) of 89.3%.
Work on “sense rUrUrCrArCrCrCrGrArArUrGrUrGrUrArCrCrCdTdT / antisense rGrGrGrUrArCrArCrArUrUrCrGrGrGrUrGrArAdAdT” yielded a normalised inhibition (eCFP-eYFP dual reporter) of 49.6%.
For “sense rArGrArCrCrArCrCrCrArUrUrUrGrGrUrUrUrCdTdT / antisense rGrArArArCrCrArArArUrGrGrGrUrGrGrUrCrUdTdT”, the normalised inhibition (eCFP-eYFP dual reporter) was 79.8%.
Substance “sense rCrCrUrUrCrGrGrGrGrArCrArGrUrGrUrGrCrCdTdT / antisense rGrGrCrArCrArCrUrGrUrCrCrCrCrGrArArGrGdGdT” has a normalised inhibition (eCFP-eYFP dual reporter) of 51.1%.
With “sense rArGrArUrCrCrUrArUrUrArGrGrArArUrArCrAdTdT / antisense rUrGrUrArUrUrCrCrUrArArUrArGrGrArUrCrUdGdT” the normalised inhibition (eCFP-eYFP dual reporter) was 90.4%.
“sense rCrArGrArUrCrCrUrArUrUrArGrGrArArUrArCdTdT / antisense rGrUrArUrUrCrCrUrArArUrArGrGrArUrCrUrGdTdT” gave a normalised inhibition (eCFP-eYFP dual reporter) of 74.4%.
“sense rArArCrCrUrCrArUrGrArArCrUrGrGrGrArGrUdTdT / antisense rArCrUrCrCrCrArGrUrUrCrArUrGrArGrGrUrUdCdA” showed a normalised inhibition (eCFP-eYFP dual reporter) of 34.5%.
Substance “sense rCrCrUrCrArUrGrArArCrUrGrGrGrArGrUrGrCdTdT / antisense rGrCrArCrUrCrCrCrArGrUrUrCrArUrGrArGrGdTdT” has a normalised inhibition (eCFP-eYFP dual reporter) of 72.2%.
“sense rUrUrCrArArArGrArUrGrArUrUrArUrCrCrArUdTdT / antisense rArUrGrGrArUrArArUrCrArUrCrUrUrUrGrArAdAdA” was tested, and the normalised inhibition (eCFP-eYFP dual reporter) was 65.2%.
Work on “sense rUrArUrUrArGrGrArArUrArCrArGrGrArArCrUdTdT / antisense rArGrUrUrCrCrUrGrUrArUrUrCrCrUrArArUrAdGdG” yielded a normalised inhibition (eCFP-eYFP dual reporter) of 71.9%.
“sense rUrGrGrGrArArGrGrArGrGrCrUrUrGrUrUrUrAdTdT / antisense rUrArArArCrArArGrCrCrUrCrCrUrUrCrCrCrAdCdG” was tested, and the normalised inhibition (eCFP-eYFP dual reporter) was 78%.
In the case of “sense rGrCrUrUrGrUrUrUrArArArCrUrArCrGrGrArUdTdT / antisense rArUrCrCrGrUrArGrUrUrUrArArArCrArArGrCdCdT”, the normalised inhibition (eCFP-eYFP dual reporter) was 92.2%.
“sense rUrGrUrUrUrArArArCrUrArCrGrGrArUrGrCrUdTdT / antisense rArGrCrArUrCrCrGrUrArGrUrUrUrArArArCrAdAdG” was tested, and the normalised inhibition (eCFP-eYFP dual reporter) was 68.1%.
Substance “sense rGrGrGrGrArCrArGrUrGrUrGrCrCrUrGrUrCrCdTdT / antisense rGrGrArCrArGrGrCrArCrArCrUrGrUrCrCrCrCdGdA” has a normalised inhibition (eCFP-eYFP dual reporter) of 47.8%.
With “sense rUrGrArUrUrArUrCrCrArUrCrUrUrCrGrCrCrAdTdT / antisense rUrGrGrCrGrArArGrArUrGrGrArUrArArUrCrAdTdC” the normalised inhibition (eCFP-eYFP dual reporter) was 59%.
For “sense rArArCrCrArArArUrArUrCrCrArArGrArCrCrCdTdT / antisense rGrGrGrUrCrUrUrGrGrArUrArUrUrUrGrGrUrUdCdA”, the normalised inhibition (eCFP-eYFP dual reporter) was 48.9%.
In the case of “sense rArCrCrCrArUrUrUrGrGrUrUrUrCrGrUrGrGrCdTdT / antisense rGrCrCrArCrGrArArArCrCrArArArUrGrGrGrUdGdG”, the normalised inhibition (eCFP-eYFP dual reporter) was 56.9%.
In the case of “sense rArGrCrUrCrArArGrCrArGrArGrGrCrCrUrArCdTdT / antisense rGrUrArGrGrCrCrUrCrUrGrCrUrUrGrArGrCrUdGdG”, the normalised inhibition (eCFP-eYFP dual reporter) was 89.5%.
